# Laboratory results taken from patent US20260078118A1, “COMBINED PRODUCT, SALT AND USE THEREOF” (SHANGHAI HENLIUS BIOTECH, INC., priority 2023, published 2026).
# Structures can show the parent of a compound that is named as a salt.
# Tests used:
# [1] = test system: mice subjected to intragastric administration of α-naphthylisothiocyanate (ANIT); assay: ANIT mouse model, serological indicators; type: in vivo, C57BL/6 mice; conditions: vs. ANIT model group
# Text: In order to verify the technical effects observed in the in vitro cell models, this experiment further examined the effects of compound Y and compound B on serological indicators in a mouse model subjected to intragastric administration of α-naphthylisothiocyanate (ANIT). Fifty-four female C57BL/6 mice aged 6-8 weeks were purchased from Shanghai Lingchang Biotechnology Co., Ltd. After one week of acclimatization, the mice were divided into 6 groups according to body weight, and this time point was designated as day −3. The test compound in each group was intragastrically administered starting from day −3. After three consecutive days of administration, modeling was performed by intragastric administration of ANIT at a dose of 50 mg/kg, and this time point was designated as day 0. During modeling, the healthy group (control) received a single oral dose of pure olive oil. Throughout the entire experimental period, both the healthy group (control) and the model group (ANIT) were given corresponding doses of vehicle (sodium carboxymethylcellulose) according to body weight. The mice were observed daily for health status and body weight changes. The experimental endpoint was day 2; prior to euthanasia, the mice were fasted for 6 h, and cardiac blood collection and liver sample acquisition were performed under anesthesia. The primary indicators were serological changes including AST, ALT, and ALP.
# In order to verify the technical effects observed in the DDC model, this experiment further examined the effects of various compound combinations on serological indicators in a mouse model subjected to intragastric administration of α-naphthylisothiocyanate (ANIT). Fifty-six female C57BL/6 mice aged 6-8 weeks were purchased from Shanghai Lingchang Biotechnology Co., Ltd. After one week of acclimatization, the mice were divided into 7 groups according to body weight, and this time point was designated as day −3. The compound in each group was intragastrically administered starting from day −3. After three consecutive days of administration, modeling was performed by intragastric administration of ANIT at a dose of 50 mg/kg, and this time point was designated as day 0. The normal control group received a single oral dose of pure olive oil. Throughout the entire experimental period, both the healthy group (control) and the model group (ANIT) were given corresponding doses of vehicle (sodium carboxymethylcellulose) according to body weight. The mice were observed daily for health status and body weight changes. The experimental endpoint was day 2; prior to euthanasia, the mice were fasted for 6 h, and cardiac blood collection and liver sample acquisition were performed under anesthesia. The primary indicators were serological changes including AST, ALT, and ALP.
# HepG2 cells = assay: Protection of hepatocytes from deoxycholic acid (DCA)-induced cell damage, CCK8 viability; type: cell-based; conditions: then 1 mM DCA 4 h; for cell viability: compound N 50 μM for 24 h, vs. DCA-treated group
# Procedure: (§1) First, 2.5×10^4 HepG2 cells were seeded in a 96-well flat-bottom plate with an MEM medium containing 10% fetal bovine serum. The cells were cultured overnight in an incubator at 37° C. with 5% CO2 for adhesion. Subsequently, various compounds at corresponding concentrations (compound Y: 100 μM; compound B: 100 μM; compound N: 50 μM) were incubated with the HepG2 cells in the incubator at 37° C. with 5% CO2 for 24 h. All groups, except for the blank control group, were treated with 1 mM deoxycholic acid (DCA, a secondary bile acid that can directly induce hepatocyte damage) for 4 h. All groups were supplemented with 10 μL of CCK8 reagent and incubated under the incubator conditions for 1 h. The absorbance was measured at a wavelength of 450 nm using a microplate reader, which indirectly reflected the number of viable cells. All data were calculated and presented as percentages relative to the absorbance measured in the blank control group not treated with deoxycholic acid.
# as §1, with “Y: 50” for “Y: 100 μM; compound B: 100”, “N: 50 µM; compound combination Y+N: 50 μM+50 μM (molar ratio: 1:1); YN salt:” for “N:”, “h. Then, the” for “h. The”
# as §1, with “µM;” for “μM; compound B: 100 μM;”, “µM; compound combination Y+N: 100 μM+50 μM (molar ratio: 2:1))” for “μM)”
# First, 2.5×10^4 HepG2 cells were seeded in a 96-well flat-bottom plate with an MEM medium containing 10% fetal bovine serum. The cells were cultured overnight in an incubator at 37° C. with 5% CO2 for adhesion. […] The absorbance was measured at a wavelength of 450 nm using a microplate reader, which indirectly reflected the number of viable cells. […]
# CD8-positive T cells = assay: Proliferation of CD8-positive T cells from Anti-CD3/CD28-stimulated PBMCs (CellTrace, flow cytometry); type: cell-based, human; conditions: FIG. 6; compound Y 200 μM, Y+N 200 μM+100 μM, 72 h; vs. DMSO control
# Procedure: (§2) First, a certain amount of human peripheral blood mononuclear cells (PBMCs) were incubated with 5 μM CellTrace cell proliferation assay reagent in an incubator at 37° C. with 5% CO2 in the dark for 20 min. Then, 1.5×10^5 CellTrace-stained PBMCs were seeded in a 96-well U-bottom plate and treated with Anti-CD3/CD28 antibody-coupled magnetic beads at a ratio of 1:1 (cell count:magnetic bead count) to induce differentiation into T cells. Subsequently, various compounds at corresponding concentrations (compound Y: 200 µM; compound N: 100 µM; compound combination Y+N: 200 μM+100 μM; control group: UDCA (100 μM)) were co-incubated with the above-treated cells in the incubator at 37° C. with 5% CO2 for 72 h, followed by analysis by a flow cytometer. Specifically, the test cells were first treated with a Live/dead dye (633 nm, 1:1000 dilution) at 4° C. for 30 min to distinguish dead cells from live cells. Subsequently, the above test cells were simultaneously co-incubated with wavelength dyes anti-CD45-PerCPCy5.5, anti-CD4-AF700, and anti-CD8-FITC at room temperature for 30 min to distinguish different series of T cells (CD4-positive T cells and CD8-positive T cells). After appropriate washing, the above-stained cells were analyzed by a flow cytometer at different wavelengths. […] Proliferation of CD4-positive and CD8-positive T cells was determined by the fluorescence of CellTrace dye.
# CD4-positive T cells = assay: Proliferation of CD4-positive T cells from Anti-CD3/CD28-stimulated PBMCs (CellTrace, flow cytometry); type: cell-based, human; conditions: FIG. 5; compound Y 200 μM, Y+N 200 μM+100 μM, 72 h; vs. DMSO control
# Procedure: as §2
# [2] = test system: mice fed with feed containing 0.1% DDC (DDC model); assay: DDC model, serological indicators and liver pathology; type: in vivo, C57BL/6 mice; conditions: Example 12, FIG. 17; U 100 mg/kg, combinations 100+100 mg/kg; vs. DDC model group
# Text: Seventy-one male C57BL/6 mice aged 10 weeks were purchased from Shanghai Lingchang Biotechnology Co., Ltd. […] The compound in each group was intragastrically administered starting from day 0. Throughout the entire experimental period, both the healthy group (control) and the model group (DDC) were given corresponding doses of vehicle (sodium carboxymethylcellulose) according to body weight. The mice were observed daily for health status and body weight changes. The experimental endpoint was day 20. Prior to euthanasia, the mice were fasted for 6 h, and cardiac blood collection and liver sample acquisition were performed under anesthesia. The primary indicators were serological changes including AST, ALT, and ALP; pathological analysis was performed by HE staining. The specific grouping and the administration dose for each group are shown in the table below: Fifty-six male C57BL/6 mice aged 10 weeks were purchased from Shanghai Lingchang Biotechnology Co., Ltd. […] The compound in each group was intragastrically administered starting from day 0. Throughout the entire experimental period, both the healthy group (control) and the model group (DDC) were given corresponding doses of vehicle (sodium carboxymethylcellulose) according to body weight. The mice were observed daily for health status and body weight changes. The experimental endpoint was day 20. […]
# [3] = Example 9, FIG. 9, 100 and 50 mg/kg intragastric twice daily
# [4] = Example 4, FIG. 1, compound Y 100 μM, compound B 100 μM
structure (smiles),measurement,setting,value
"COc1ccc2cc3[n+](cc2c1OC)CCc1cc2c(cc1-3)OCO2 [Compound B, Berberine hydrochloride]",serum alkaline phosphatase (ALP) levels,"[1]; Example 9, FIG. 7, 100 and 50 mg/kg intragastric twice daily",increased serum ALP levels in a dose-dependent manner
same,serum ALT levels,"[1]; Example 9, FIG. 8, 100 and 50 mg/kg intragastric twice daily",increased serum ALT levels in a dose-dependent manner
same,serum AST levels,[1]; [3],increased serum AST levels in a dose-dependent manner
same,cell viability,HepG2 cells; [4],highly significant increase in cell viability
"C[C@H](CC(=O)O)[C@H]1CC[C@H]2[C@@H]3[C@@H](O)C[C@@H]4C[C@H](O)CC[C@]4(C)[C@H]3CC[C@]12C [Compound N, 24-Norursodeoxycholic acid]",cell viability,HepG2 cells; [4],"trend toward improved cell viability, but the trend was not significant"
same,cell viability,"HepG2 cells; Example 5, FIG. 2","trend toward improved cell viability, but the trend was not significant"
COc1cc2cc3[n+](cc2cc1OC)CCc1cc2c(cc1-3)OCO2 [Compound Y],proliferation of CD8-positive T cells,CD8-positive T cells,significantly inhibited
same,proliferation of CD4-positive T cells,CD4-positive T cells,significantly inhibited
same,serum alkaline phosphatase (ALP) levels,"[1]; Example 9, FIG. 7, 50 mg/kg intragastric twice daily, day -3 to day 2",reduced serum ALP levels
same,serum alkaline phosphatase (ALP) levels,"[1]; Example 9, FIG. 7, 100 mg/kg intragastric twice daily, day -3 to day 2",significantly reduced serum alkaline phosphatase (ALP) levels
same,serum ALT levels,"[1]; Example 9, FIG. 8, 50 mg/kg intragastric twice daily",reduced serum ALT levels
same,serum ALT levels,"[1]; Example 9, FIG. 8, 100 mg/kg intragastric twice daily",significantly reduced serum ALT levels
same,serum AST levels,[1]; [3],reduced serum AST levels in a dose-dependent manner
same,cell viability,HepG2 cells; [4],highly significant increase in cell viability
same,cell viability (percentage relative to blank control),"HepG2 cells; Example 5, FIG. 2, compound Y 50 μM, Y+N 50 μM+50 μM (1:1), YN salt 50 μM for 24 h",72%
"C[C@H](CCC(=O)O)[C@H]1CC[C@H]2[C@@H]3[C@@H](O)C[C@@H]4C[C@H](O)CC[C@]4(C)[C@H]3CC[C@]12C [U, Ursodeoxycholic acid]",bile pigment-positive area of the liver,[2],significant reduction in the bile pigment-positive area of the liver
same,serum alkaline phosphatase (ALP) levels,"[1]; Example 10, FIG. 10, U 100 mg/kg intragastric twice daily",reduced serum alkaline phosphatase (ALP) levels
same,serum ALT levels,"[1]; Example 10, FIG. 11, U 100 mg/kg, Y+N 100+50 mg/kg intragastric twice daily",significantly increased serum ALT levels
same,serum AST levels,"[1]; Example 10, FIG. 12, U 100 mg/kg, Y+N 100+50 mg/kg intragastric twice daily",significantly increased serum AST levels
